Test results from ChEMBL document CHEMBL1128378, “Use of medium-sized cycloalkyl rings to enhance secondary binding: discovery of a new class of human immunodeficiency virus (HIV) protease inhibitors” (J Med Chem, 1995).
Values belong to the molecule of their own block, whether it stands above or below them.

Legend:
[1] = test system: HIV-1 protease (Human immunodeficiency virus 1); test: Inhibition against HIV protease at 1 uM
[2] = test system: HIV-1 protease (Human immunodeficiency virus 1); test: Binding affinity against HIV protease.; Not determined due to low enzyme inhibition
[3] = Time taken for maximum plasma concentration for the compound in solution form (formulation) was determined in rats at peroral dose of 5 mg/kg; type: ADME, organism-based; parameters: dose 5 mg/kg, route oral; conditions: rat, po
[4] = Maximum plasma concentration for the compound in suspension form (formulation) was determined in rats at peroral dose of 5 mg/kg; type: ADME, organism-based; parameters: dose 5 mg/kg, route oral; conditions: rat, po
[5] = Time taken for maximum plasma concentration for the compound in suspension form (formulation) was determined in rats at peroral dose of 5 mg/kg; type: ADME, organism-based; parameters: dose 5 mg/kg, route oral; conditions: rat, po
[6] = Maximum plasma concentration for the compound in solution form (formulation) was determined in rats at peroral dose of 5 mg/kg; type: ADME, organism-based; parameters: dose 5 mg/kg, route oral; conditions: rat, po
[7] = test system: HIV-1 protease (Human immunodeficiency virus 1); test: Binding affinity against HIV protease at 1 uM
[8] = test system: HIV-1 protease (Human immunodeficiency virus 1); test: Binding affinity against HIV protease at 30 uM concentration
[9] = test system: HIV-1 protease (Human immunodeficiency virus 1); test: Binding affinity against HIV protease at 30 uM

inhibition [1]: 40% | Ki [2]: Low inhibition
Compound: O=c1c2c(oc(O)c1C(c1ccccc1)C1CC1)CCC2 (configuration not stated)

Tmax [3]: 3.7 h | Cmax [4]: 30.3 µM | Tmax [5]: 6 h | Cmax [6]: 40.8 µM | inhibition [1]: 95%
Compound: O=c1c2c(oc(O)c1C(c1ccccc1)C1CC1)CCCCCC2 (configuration not stated)

inhibition [7]: 10%
Compound: CC(c1ccccc1)c1c(O)c2c(oc1=O)CCCCCC2 (configuration not stated)

inhibition [8]: 38%
Compound: O=c1c(CCCc2ccccc2)c(O)oc2c1CCCCCC2

inhibition [1]: 94%
Compound: O=c1c2c(oc(O)c1C(c1ccccc1)C1CC1)CCCCCCC2 (configuration not stated)

inhibition [1]: 23%
Compound: O=c1c2c(oc(O)c1C(c1ccccc1)C1CC1)CCCCCCCC2 (configuration not stated)

inhibition [1]: 62%
Compound: O=c1c2c(oc(O)c1C(c1ccccc1)C1CC1)CCCC2 (configuration not stated)

inhibition [9]: < 10%
Compound: O=c1c(Cc2ccccc2)c(O)oc2c1CCCCCC2

inhibition [1]: 70%
Compound: O=c1c2c(oc(O)c1C(c1ccccc1)C1CC1)CCCCC2 (configuration not stated)

inhibition [9]: < 10%
Compound: O=c1c(CCc2ccccc2)c(O)oc2c1CCCCCC2

inhibition [1]: < 10% | Ki [2]: Low inhibition
Compound: O=c1c2c(oc(O)c1C(c1ccccc1)C1CC1)CCCCCCCCCC2 (configuration not stated)
